Reference: patent US8815857B2 (Boehringer Ingelheim International GmbH, priority 2011, dated 2014)
Converted amounts (≈) assume the structure as drawn.

Key:
[1] = target: T1, human soluble guanylate cyclase alpha 1 and beta 1 subunits (sGC) stably expressed in Chinese hamster ovary cells (Homo sapiens, UniProt Q02108+Q02153); assay: sGC cellular activator assay: cGMP in CHO cells expressing human sGC, preincubated with ODQ; format: cell-based; conditions: 40 microM ODQ preincubation, 30 min at room temperature, presence or absence of 50% human serum not given, read-out: EC50 nM, Activity of Compounds in Cellular Assay
T1 construct: expressed in transfected cells; host or cells: Chinese hamster ovary cells, stably transfected
T1 sequence (Q02108 1-690 partner): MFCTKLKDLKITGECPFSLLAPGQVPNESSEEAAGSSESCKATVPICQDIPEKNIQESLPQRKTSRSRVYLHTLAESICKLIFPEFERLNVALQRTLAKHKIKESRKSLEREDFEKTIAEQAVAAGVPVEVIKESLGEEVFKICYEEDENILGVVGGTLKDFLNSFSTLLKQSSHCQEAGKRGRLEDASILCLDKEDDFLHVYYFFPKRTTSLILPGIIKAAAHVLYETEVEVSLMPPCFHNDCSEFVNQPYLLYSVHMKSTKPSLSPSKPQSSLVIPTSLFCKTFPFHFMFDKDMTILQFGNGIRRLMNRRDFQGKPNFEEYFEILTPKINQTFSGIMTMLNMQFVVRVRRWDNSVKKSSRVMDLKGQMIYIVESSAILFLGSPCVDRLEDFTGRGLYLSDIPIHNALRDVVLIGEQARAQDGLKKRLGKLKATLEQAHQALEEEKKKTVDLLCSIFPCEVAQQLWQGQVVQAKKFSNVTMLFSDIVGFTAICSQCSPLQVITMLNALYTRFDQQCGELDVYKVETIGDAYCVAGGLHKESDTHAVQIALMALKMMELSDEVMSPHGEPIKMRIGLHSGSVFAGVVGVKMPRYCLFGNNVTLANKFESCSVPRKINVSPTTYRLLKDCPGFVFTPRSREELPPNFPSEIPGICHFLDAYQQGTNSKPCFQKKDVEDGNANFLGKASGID
T1 sequence (Q02153 1-619): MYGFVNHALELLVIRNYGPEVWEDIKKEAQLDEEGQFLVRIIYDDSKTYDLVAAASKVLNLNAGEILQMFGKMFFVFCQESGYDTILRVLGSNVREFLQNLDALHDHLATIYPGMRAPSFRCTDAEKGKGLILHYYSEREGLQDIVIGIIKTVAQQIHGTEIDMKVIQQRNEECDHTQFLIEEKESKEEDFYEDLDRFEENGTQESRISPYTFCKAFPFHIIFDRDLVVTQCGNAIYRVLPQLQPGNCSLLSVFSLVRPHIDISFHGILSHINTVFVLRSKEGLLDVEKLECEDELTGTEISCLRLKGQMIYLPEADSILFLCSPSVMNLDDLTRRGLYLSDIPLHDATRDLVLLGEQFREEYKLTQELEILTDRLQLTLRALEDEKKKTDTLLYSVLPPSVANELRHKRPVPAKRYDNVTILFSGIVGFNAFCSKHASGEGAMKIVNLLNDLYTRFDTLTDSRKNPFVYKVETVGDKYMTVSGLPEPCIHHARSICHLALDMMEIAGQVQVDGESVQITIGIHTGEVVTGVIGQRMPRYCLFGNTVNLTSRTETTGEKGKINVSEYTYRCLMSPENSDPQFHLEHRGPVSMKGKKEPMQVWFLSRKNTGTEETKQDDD
Method in brief: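 EC50 values derive from HTRF cGMP measurement after test compounds act for thirty minutes at room temperature, with or without 50% human serum. Before dosing, the sGC-transfected CHO cells spend one hour with the inhibitor ODQ (40 microM) in IBMX- and 0.1% BSA-containing buffer.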

[2] = Assessment of solubility: HT solubility in pION buffer, UV spectrophotometry; conditions: kinetic from dmso stock
[3] = pH 6.8, aqueous buffer, Solubility (pH 6.8), pH 6.8
[4] = pION system solution buffer, pH 4.5, pH 4.5, aqueous buffer, Solubility (pH 4.5), pH 4.5 buffer, 16-19 h incubation, 1.0% DMSO
[5] = pION system solution buffer, pH 7.4, pH 7.4, aqueous buffer, Solubility (pH 7.4), pH 7.4 buffer, 16-19 h incubation, 1.0% DMSO

Compound	EC50 [1]	solubility [2, 3]	solubility [2, 4]	solubility [2, 5]
Cc1ccc(OCc2ccc(C(=O)N3CCC(O)CC3)cc2C)c(-c2csc(N3C[C@H]4CC[C@@H](C3)[C@H]4C(=O)O)n2)c1 [Compound 301]	57 nM	65 µg/mL (≈ 113 µM)	0.24 µg/mL (≈ 0.417 µM)	–
Cc1ccc(OCc2ccc(C(=O)N3CCCCCC3)cc2C)c(-c2csc(N3C[C@H]4CC[C@@H](C3)[C@H]4C(=O)O)n2)c1 [Compound 302]	35 nM	4.6 µg/mL (≈ 8.02 µM)	< 0.1 µg/mL	–
CCN(C)C(=O)c1ccc(COc2ccc(C)cc2-c2csc(N3C[C@H]4CC[C@@H](C3)[C@H]4C(=O)O)n2)c(C)c1 [Compound 303]	11 nM	36 µg/mL (≈ 67.5 µM)	0.13 µg/mL (≈ 0.244 µM)	–
Cc1ccc(OCc2ccc(C(=O)N(C)C)cc2C)c(-c2csc(N3C[C@H]4CC[C@@H](C3)[C@H]4C(=O)O)n2)c1 [Compound 304]	23 nM	60 µg/mL (≈ 115 µM)	< 0.1 µg/mL	–
Cc1ccc(OCc2ccc(C(=O)N(C)CCN(C)C)cc2C)c(-c2csc(N3C[C@H]4CC[C@@H](C3)[C@H]4C(=O)O)n2)c1 [Compound 305]	140 nM	67 µg/mL (≈ 116 µM)	62 µg/mL (≈ 107 µM)	–
Cc1ccc(OCc2ccc(C(=O)N(C)CC3CCCO3)cc2C)c(-c2csc(N3C[C@H]4CC[C@@H](C3)[C@H]4C(=O)O)n2)c1 (stereo partly drawn) [Compound 306]	21 nM	50 µg/mL (≈ 84.8 µM)	0.13 µg/mL (≈ 0.22 µM)	5.2 µg/mL (≈ 8.82 µM)
CCN(CCC#N)C(=O)c1ccc(COc2ccc(C)cc2-c2csc(N3C[C@H]4CC[C@@H](C3)[C@H]4C(=O)O)n2)c(C)c1 [Compound 307]	24 nM	37 µg/mL (≈ 64.6 µM)	0.15 µg/mL (≈ 0.262 µM)	–
Cc1ccc(OCc2ccc(C(=O)N3CCN(C)C(=O)C3)cc2C)c(-c2csc(N3C[C@H]4CC[C@@H](C3)[C@H]4C(=O)O)n2)c1 [Compound 308]	20 nM	66 µg/mL (≈ 112 µM)	0.88 µg/mL (≈ 1.49 µM)	–
Cc1ccc(OCc2ccc(C(=O)N3CCC(CO)CC3)cc2C)c(-c2csc(N3C[C@H]4CC[C@@H](C3)[C@H]4C(=O)O)n2)c1 [Compound 309]	42 nM	63 µg/mL (≈ 107 µM)	< 0.1 µg/mL	–
Cc1ccc(OCc2ccc(C(=O)N3CC[C@@H](N(C)C)C3)cc2C)c(-c2csc(N3C[C@H]4CC[C@@H](C3)[C@H]4C(=O)O)n2)c1 [Compound 310]	99 nM	61 µg/mL (≈ 104 µM)	59 µg/mL (≈ 100 µM)	–
Cc1ccc(OCc2ccc(C(=O)N3CC[C@H](N(C)C)C3)cc2C)c(-c2csc(N3C[C@H]4CC[C@@H](C3)[C@H]4C(=O)O)n2)c1 [Compound 311]	29 nM	63 µg/mL (≈ 107 µM)	58 µg/mL (≈ 98.5 µM)	–
Cc1ccc(OCc2ccc(C(=O)N3CCC[C@@H](O)C3)cc2C)c(-c2csc(N3C[C@H]4CC[C@@H](C3)[C@H]4C(=O)O)n2)c1 [Compound 312]	35 nM	13 µg/mL (≈ 22.6 µM)	0.26 µg/mL (≈ 0.452 µM)	–
Cc1ccc(OCc2ccc(C(=O)N3CC[C@H](O)C3)cc2C)c(-c2csc(N3C[C@H]4CC[C@@H](C3)[C@H]4C(=O)O)n2)c1 [Compound 313]	120 nM	78 µg/mL (≈ 139 µM)	1.3 µg/mL (≈ 2.31 µM)	–
Cc1ccc(OCc2ccc(C(=O)N3CCNC(=O)C3)cc2C)c(-c2csc(N3C[C@H]4CC[C@@H](C3)[C@H]4C(=O)O)n2)c1 [Compound 314]	63 nM	68 µg/mL (≈ 118 µM)	2.4 µg/mL (≈ 4.18 µM)	–
Cc1ccc(OCc2ccc(C(=O)N(C)Cc3cnn(C)c3)cc2C)c(-c2csc(N3C[C@H]4CC[C@@H](C3)[C@H]4C(=O)O)n2)c1 [Compound 315]	57 nM	54 µg/mL (≈ 90 µM)	< 0.1 µg/mL	> 60 µg/mL
Cc1ccc(OCc2ccc(C(=O)N3CCCOCC3)cc2C)c(-c2csc(N3C[C@H]4CC[C@@H](C3)[C@H]4C(=O)O)n2)c1 [Compound 316]	15 nM	64 µg/mL (≈ 111 µM)	< 0.1 µg/mL	–
Cc1ccc(OCc2ccc(C(=O)N3CCC(F)(F)CC3)cc2C)c(-c2csc(N3C[C@H]4CC[C@@H](C3)[C@H]4C(=O)O)n2)c1 [Compound 317]	20 nM	41 µg/mL (≈ 68.8 µM)	< 0.1 µg/mL	–
Cc1ccc(OCc2ccc(C(=O)N(C)Cc3ccnn3C)cc2C)c(-c2csc(N3C[C@H]4CC[C@@H](C3)[C@H]4C(=O)O)n2)c1 [Compound 318]	66 nM	34 µg/mL (≈ 56.7 µM)	< 0.1 µg/mL	> 53 µg/mL
Cc1ccc(OCc2ccc(C(=O)N3CCC[C@H](O)C3)cc2C)c(-c2csc(N3C[C@H]4CC[C@@H](C3)[C@H]4C(=O)O)n2)c1 [Compound 319]	70 nM	12 µg/mL (≈ 20.8 µM)	0.23 µg/mL (≈ 0.399 µM)	–
Cc1ccc(OCc2ccc(C(=O)N3CCC(F)(F)C3)cc2C)c(-c2csc(N3C[C@H]4CC[C@@H](C3)[C@H]4C(=O)O)n2)c1 [Compound 320]	15 nM	36 µg/mL (≈ 61.9 µM)	< 0.1 µg/mL	–
COC1CCN(C(=O)c2ccc(COc3ccc(C)cc3-c3csc(N4C[C@H]5CC[C@@H](C4)[C@H]5C(=O)O)n3)c(C)c2)CC1 [Compound 321]	55 nM	41 µg/mL (≈ 69.5 µM)	0.13 µg/mL (≈ 0.22 µM)	–
COC1CCCN(C(=O)c2ccc(COc3ccc(C)cc3-c3csc(N4C[C@H]5CC[C@@H](C4)[C@H]5C(=O)O)n3)c(C)c2)C1 (stereo partly drawn) [Compound 322]	19 nM	42 µg/mL (≈ 71.2 µM)	0.15 µg/mL (≈ 0.254 µM)	–
Cc1ccc(OCc2ccc(C(=O)N3CCC(C#N)CC3)cc2C)c(-c2csc(N3C[C@H]4CC[C@@H](C3)[C@H]4C(=O)O)n2)c1 [Compound 323]	51 nM	39 µg/mL (≈ 66.7 µM)	< 0.1 µg/mL	–
Cc1ccc(OCc2ccc(C(=O)N(C)CCCO)cc2C)c(-c2csc(N3C[C@H]4CC[C@@H](C3)[C@H]4C(=O)O)n2)c1 [Compound 324]	66 nM	73 µg/mL (≈ 129 µM)	0.92 µg/mL (≈ 1.63 µM)	–
Cc1ccc(OCc2ccc(C(=O)N3CC[C@H](CO)C3)cc2C)c(-c2csc(N3C[C@H]4CC[C@@H](C3)[C@H]4C(=O)O)n2)c1 [Compound 325]	29 nM	59 µg/mL (≈ 102 µM)	0.17 µg/mL (≈ 0.295 µM)	–
Cc1ccc(OCc2ccc(C(=O)N3CC[C@@H](CO)C3)cc2C)c(-c2csc(N3C[C@H]4CC[C@@H](C3)[C@H]4C(=O)O)n2)c1 [Compound 326]	61 nM	65 µg/mL (≈ 113 µM)	0.21 µg/mL (≈ 0.365 µM)	–
Cc1ccc(OCc2ccc(C(=O)N3CCn4ncnc4C3)cc2C)c(-c2csc(N3C[C@H]4CC[C@@H](C3)[C@H]4C(=O)O)n2)c1 [Compound 327]	14 nM	71 µg/mL (≈ 119 µM)	< 0.1 µg/mL	–
